Laboratory results as given in patent US20240239764A1, “SUBSTITUTED AMINOBENZYL HETEROARYL COMPOUNDS AS EGFR AND/OR PI3K INHIBITORS” (Mekanistic Therapeutics, priority 2020, published 2024).
Read-outs that look alike come from different tables or passages of the source. Each block holds one molecule with its values, some of them ahead of it.

Experiments:
[1] = biological target: PI3Ka (Homo sapiens, UniProt P42336); assay: Z′-LYTE / ADAPTA kinase assay, PI3Ka; type: biochemical; details: for inhibition at 0.1 µM: read-out: PI3Ka % Inh. @100 nM
Text: (§1) The Z′-LYTE® biochemical assay employs a fluorescence-based, coupled-enzyme format and is based on the differential sensitivity of phosphorylated and non-phosphorylated peptides to proteolytic cleavage (FIG. 6). The peptide substrate is labeled with two fluorophores—one at each end—that make up a FRET pair. In the primary reaction, the kinase transfers the gamma-phosphate of ATP to a single tyrosine, serine or threonine residue in a synthetic FRET-peptide. In the secondary reaction, a site-specific protease recognizes and cleaves non-phosphorylated FRET-peptides. Phosphorylation of FRET-peptides suppresses cleavage by the Development Reagent. Cleavage disrupts FRET between the donor (i.e., coumarin) and acceptor (i.e., fluorescein) fluorophores on the FRET-peptide, whereas uncleaved, phosphorylated FRET-peptides maintain FRET. A ratiometric method, which calculates the ratio (the Emission Ratio) of donor emission to acceptor emission after excitation of the donor fluorophore at 400 nm, is used to quantitate reaction progress.
A significant benefit of this ratiometric method for quantitating reaction progress is the elimination of well-to-well variations in FRET-peptide concentration and signal intensities. As a result, the assay yields very high Z′-factor values (>0.7) at a low percent phosphorylation.
Both cleaved and uncleaved FRET-peptides contribute to the fluorescence signals and therefore to the Emission Ratio. The extent of phosphorylation of the FRET-peptide can be calculated from the Emission Ratio.
Enzyme: The ADAPTA universal kinase assay is a homogenous, fluorescent based immunoassay for the detection of ADP. In contrast to ATP depletion assays, the ADAPTA assay is extremely sensitive to ADP formation such that a majority of the signal change occurs in the first 10-20% conversion of ATP to ADP. This makes the ADAPTA universal kinase assay ideally suited for use with low activity kinases.
The principle of the ADAPTA universal kinase assay is outlined below. The assay itself can be divided into two phases: a kinase reaction phase, and an ADP detection phase. In the kinase reaction phase, all components required for the kinase reaction are added to the well, and the reaction is allowed to incubate for 60 minutes. After the reaction, a detection solution consisting of a europium labeled anti-ADP antibody, an AlexaFluor® 647 labeled ADP tracer, and EDTA (to stop the kinase reaction) is added to the assay well. ADP formed by the kinase reaction (in the absence of an inhibitor) will displace the Alexa Fluor®647 labeled ADP tracer from the antibody, resulting in a decrease in the TR-FRET signal.
Test Compounds: The Test Compounds are screened in 1% DMSO (final) in the well. For 10 point titrations, 3-fold serial dilutions are conducted from the starting concentration.
Peptide/Kinase Mixtures: All Peptide/Kinase Mixtures are diluted to a 2× working concentration in the appropriate Kinase Buffer.
ATP Solution: All ATP Solutions are diluted to a 4× working concentration in Kinase Buffer (50 mM HEPES pH 7.5, 0.01% BRIJ-35, 10 mM MgCl2, 1 mM EGTA). ATP Km apparent is previously determined using a Z′-LYTE® assay.
Development Reagent Solution: The Development Reagent is diluted in Development Buffer.
10× Novel PKC Lipid Mix: 2 mg/mL Phosphatidyl Serine, 0.2 mg/mL DAG in 20 mM HEPES, pH 7.4, 0.3% CHAPS. For 5 mL 10× Novel PKC Lipid Mix: 1. Add 10 mgs Phosphatidyl Serine (Avanti Polar Lipids Part #8400032C or 840039C) and 1 mg DAG (Avanti Polar Lipids Part #800811 C) to a glass tube. 2. Remove the chloroform from lipid mixture by evaporating to a clear, thin film under a stream of nitrogen. Continuous rotation of the tube, at an angle to ensure maximum surface area of the lipid solution, will promote the thinnest film. 3. Add 5 mLs resuspension buffer, 20 mM HEPES, 0.3% CHAPS, pH 7.4, to the dried lipid mix 4. Heat gently to 50-60° C. for 1-2 minutes and vortex in short intervals until the lipids are dissolved to a clear or slightly hazy solution. […]

[2] = Pharmacokinetics in mice, single IV / oral dose; type: in vivo
Procedure: (§2) The pharmacokinetics of Compound 2R (HCl salt) and Comparative Compound 2 were studied following a single intravenous and/or oral administration to mice, dogs, and monkeys (n=3 for all species). The IV and PO solution formulations for Comparative Compound 2 contained 20% (w/v) propylene glycol, 75% (w/v) 50 mM trisodium phosphate (pH 12), and 5% (w/v) Kolliphor EL. The formulation for Compound 2R contained 1:2 propylene glycol: 1% Tween 80/Na3PO4 (50 mM). Subsequent pharmacokinetic data analysis was performed using non-compartmental analysis modules in Phoenix/WINNONLIN 6.3 (Pharsight, St. Louis, Missouri, USA), and the linear trapezoidal rule was used for AUC calculation. Terminal elimination half-life (t½) was calculated based on data points (≥3) in the terminal phase; Tmax=Time of maximum observed concentration; AUClast/D=Area under the concentration-time curve from time zero to the last observed concentration/divided by dose; Cl_obs=Total body clearance; Cmax=maximum observed concentration; F=bioavailability of oral dose form. Blood samples were assayed for compounds using protein precipitation with acetonitrile followed by HPLC/MS/MS analysis. Blood concentration-time data were analyzed by non-compartmental methods.

[3] = Pharmacokinetics in dogs, single IV / oral dose; type: in vivo
Procedure: as §2

[4] = Pharmacokinetics in monkeys, single IV / oral dose; type: in vivo
Procedure: as §2

[5] = Tolerability in the xenograft studies; type: in vivo; details: highest dose tested 100 mg/kg, daily dosing over >50 days, all xenograft studies
Procedure: Xenograft Studies. Female NCR nude mice (CrTac:NCr-Foxn1mu from Taconic), 6-7 weeks old, were implanted subcutaneously with 5×10^6 cells in a […] serum-free media/Matrigel® mixture into the region of the right axilla, Mice were randomized into treatment groups and treatments initiated when tumors reached 100 to 200 mg. Compound 2R was administered daily by oral gavage as a fine suspension in 1:2 propylene glycol in 1% Tween80, Na3PO4 based upon individual animal body weight (0.2 mL/20 g). Subcutaneous tumor volume and body weights were measured two to three times a week. Tumor volumes were calculated by measuring two perpendicular diameters with calipers and using the formula: tumor volume=(length×width2)/2. Individual mice were dosed daily until their tumor burden reached 500 mg for the CAL-27 and HCC-70 models or 1000 mg for the CAL-33 model, to allow for calculation of increase in progression-free survival. Percent increase in survival was calculated by comparing the median time to reach either 500 mg or 1000 mg in the treated group versus the vehicle control group. A complete response (CR) is defined as a tumor below the limits of palpation ([…]).

[6] = Solubility determination (PBS 7.4, SIF, SGF); type: physicochemical; details: kinetic from dmso stock
Procedure: Preparation of stock solutions: The stock solutions of test compounds and control compound diclofenac were prepared in DMSO at the concentrations of 10 mM.
Simulated Gastric Fluid (SGF): An aqueous mixture including hydrochloric acid, sodium chloride, and pepsin (pH=1.2).
Simulated Intestinal Fluid (SIF): Prepared by dissolving 6.8 g of KH2PO4 into about 500 mL ultrapure water and adjust the solution to a pH 6.8 with 0.1 M NaOH. 10 g trypsin is then dissolved into ultrapure water. The two solutions are mixed well and diluted with ultrapure water to a final volume of 1000 mL.
485 μL of (SIF, SGF, PBS 7.4, FESSIF, or FESSGF) was added into each vial of the cap-less Solubility Sample plate. The assay was performed in duplicate. Add one stir stick to each vial and seal using a molded PTFE/Silicone plug. […] After completion of the 2 hours, plugs were removed and the stir sticks were removed using a big magnet, the samples from the Solubility Sample plate were transferred into the filter plate. Using the Vacuum Manifold, all the samples were filtered. Aliquot of 5 μL and 5 μL DMSO were taken from the filtrate followed by addition of 490 μL of a mixture of H2O and acetonitrile containing internal standard (1:1). A certain proportion of ultrapure water was used to dilute the diluent according to the peak shape. The dilution factor was changed according to the solubility values and the LC-MS signal response.
Preparation of 300 μM standards (STD): From the 10 mM DMSO STD plate, 6 μL was transferred into the remaining empty plate, and then 194 μL of DMSO was added to that plate to have a STD concentration of 300 μM. From the 300 μM DMSO STD plate, 5 μL DMSO STD and 5 μL SIF was transferred into the remaining empty plate, and then 490 μL of a mixture of H2O and acetonitrile containing internal standard (1:1) was added to that plate to have a final STD concentration of 3 μM. A certain proportion of ultrapure water was used to dilute the diluent according to the peak shape. The concentrations of the standard samples were changed according to the LC-MS signal response.
Procedure for sample analysis: The plate was placed into the well plate autosampler. The samples were evaluated by LC-MS/MS analysis.
Data analysis: All calculations were carried out using Microsoft Excel. The filtrate was analyzed and quantified against a standard of known concentration using LC coupled with mass spectral peak identification and quantitation. Solubility values of the test compound and control compound were calculated as follows: […]
Any value of the compounds that was not within the specified limits was rejected and the experiment was repeated.

[7] = biological target: DNA-PK (Homo sapiens, UniProt P78527); assay: Z′-LYTE / ADAPTA kinase assay, DNA-PK; type: biochemical; details: read-out: DNA-PK % Inh. @ 100 nM
Text: as §1, with “Cleavage disrupts FRET between the donor (i.e., coumarin) and acceptor (i.e., fluorescein) fluorophores on the FRET-peptide, whereas uncleaved, phosphorylated FRET-peptides maintain FRET.” left out
(§3) A significant benefit of this ratiometric method for quantitating reaction progress is the elimination of well-to-well variations in FRET-peptide concentration and signal intensities. […]
(§4) Both cleaved and uncleaved FRET-peptides contribute to the fluorescence signals and therefore to the Emission Ratio. The extent of phosphorylation of the FRET-peptide can be calculated from the Emission Ratio. […]

[8] = biological target: EGFR (Homo sapiens, UniProt P00533); assay: Z′-LYTE / ADAPTA kinase assay, EGFR; type: biochemical
Text: as §1, with “Cleavage disrupts FRET between the donor (i.e., coumarin) and acceptor (i.e., fluorescein) fluorophores on the FRET-peptide, whereas uncleaved, phosphorylated FRET-peptides maintain FRET.” left out
as §3, §4

[9] = simulated intestinal fluid (SIF), fassgf or other biorelevant, simulated intestinal fluid pH 6.8, 25° C., read-out: Solubility SIF

Chain of PI3Ka (P42336 whole entry): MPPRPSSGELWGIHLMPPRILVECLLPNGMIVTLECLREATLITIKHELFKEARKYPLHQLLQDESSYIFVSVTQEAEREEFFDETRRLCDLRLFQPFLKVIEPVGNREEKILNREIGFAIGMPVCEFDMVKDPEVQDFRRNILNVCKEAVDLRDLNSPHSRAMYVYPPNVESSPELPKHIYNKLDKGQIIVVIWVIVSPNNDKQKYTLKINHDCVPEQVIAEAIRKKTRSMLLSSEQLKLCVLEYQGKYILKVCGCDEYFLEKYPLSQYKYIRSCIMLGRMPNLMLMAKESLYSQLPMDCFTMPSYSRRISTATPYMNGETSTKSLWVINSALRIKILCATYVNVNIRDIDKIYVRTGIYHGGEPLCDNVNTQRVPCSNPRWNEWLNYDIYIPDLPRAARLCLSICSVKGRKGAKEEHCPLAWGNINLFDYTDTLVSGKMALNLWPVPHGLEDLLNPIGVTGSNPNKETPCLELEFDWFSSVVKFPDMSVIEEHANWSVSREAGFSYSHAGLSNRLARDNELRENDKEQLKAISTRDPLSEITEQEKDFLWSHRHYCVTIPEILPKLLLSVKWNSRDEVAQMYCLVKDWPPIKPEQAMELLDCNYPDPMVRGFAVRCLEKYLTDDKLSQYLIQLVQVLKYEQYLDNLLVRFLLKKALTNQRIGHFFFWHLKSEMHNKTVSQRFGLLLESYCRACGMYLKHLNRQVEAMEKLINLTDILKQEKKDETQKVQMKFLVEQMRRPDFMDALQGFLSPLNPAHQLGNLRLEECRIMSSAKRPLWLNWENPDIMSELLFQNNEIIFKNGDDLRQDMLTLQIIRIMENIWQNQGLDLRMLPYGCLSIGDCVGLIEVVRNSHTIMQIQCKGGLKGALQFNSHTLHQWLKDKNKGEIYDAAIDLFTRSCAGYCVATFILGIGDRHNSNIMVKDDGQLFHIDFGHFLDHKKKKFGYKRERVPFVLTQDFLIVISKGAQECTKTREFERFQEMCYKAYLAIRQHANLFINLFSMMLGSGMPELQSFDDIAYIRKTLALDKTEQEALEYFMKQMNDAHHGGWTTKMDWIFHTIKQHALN
Chain of PI3Ka (P27986 whole entry partner): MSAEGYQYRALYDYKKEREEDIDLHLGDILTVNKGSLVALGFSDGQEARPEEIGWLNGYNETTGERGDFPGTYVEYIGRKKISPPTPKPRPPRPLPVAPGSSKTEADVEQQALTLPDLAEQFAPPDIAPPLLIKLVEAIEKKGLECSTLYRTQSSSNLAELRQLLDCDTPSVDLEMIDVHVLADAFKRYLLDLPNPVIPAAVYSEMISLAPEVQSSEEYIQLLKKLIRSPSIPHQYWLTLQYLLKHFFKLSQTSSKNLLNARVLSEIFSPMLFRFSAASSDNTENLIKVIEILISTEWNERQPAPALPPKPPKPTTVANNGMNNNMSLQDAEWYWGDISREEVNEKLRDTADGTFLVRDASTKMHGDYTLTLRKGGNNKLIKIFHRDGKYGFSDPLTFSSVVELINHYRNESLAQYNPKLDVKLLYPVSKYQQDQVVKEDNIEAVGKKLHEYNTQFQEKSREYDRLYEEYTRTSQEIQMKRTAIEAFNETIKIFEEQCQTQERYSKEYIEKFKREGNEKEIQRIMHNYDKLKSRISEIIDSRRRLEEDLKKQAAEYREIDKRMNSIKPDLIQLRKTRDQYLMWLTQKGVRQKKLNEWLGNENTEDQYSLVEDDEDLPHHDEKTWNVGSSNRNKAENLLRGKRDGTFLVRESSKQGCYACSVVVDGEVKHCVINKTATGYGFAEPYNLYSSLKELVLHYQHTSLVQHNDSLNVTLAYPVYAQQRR
Chain of EGFR (P00533 25-1210): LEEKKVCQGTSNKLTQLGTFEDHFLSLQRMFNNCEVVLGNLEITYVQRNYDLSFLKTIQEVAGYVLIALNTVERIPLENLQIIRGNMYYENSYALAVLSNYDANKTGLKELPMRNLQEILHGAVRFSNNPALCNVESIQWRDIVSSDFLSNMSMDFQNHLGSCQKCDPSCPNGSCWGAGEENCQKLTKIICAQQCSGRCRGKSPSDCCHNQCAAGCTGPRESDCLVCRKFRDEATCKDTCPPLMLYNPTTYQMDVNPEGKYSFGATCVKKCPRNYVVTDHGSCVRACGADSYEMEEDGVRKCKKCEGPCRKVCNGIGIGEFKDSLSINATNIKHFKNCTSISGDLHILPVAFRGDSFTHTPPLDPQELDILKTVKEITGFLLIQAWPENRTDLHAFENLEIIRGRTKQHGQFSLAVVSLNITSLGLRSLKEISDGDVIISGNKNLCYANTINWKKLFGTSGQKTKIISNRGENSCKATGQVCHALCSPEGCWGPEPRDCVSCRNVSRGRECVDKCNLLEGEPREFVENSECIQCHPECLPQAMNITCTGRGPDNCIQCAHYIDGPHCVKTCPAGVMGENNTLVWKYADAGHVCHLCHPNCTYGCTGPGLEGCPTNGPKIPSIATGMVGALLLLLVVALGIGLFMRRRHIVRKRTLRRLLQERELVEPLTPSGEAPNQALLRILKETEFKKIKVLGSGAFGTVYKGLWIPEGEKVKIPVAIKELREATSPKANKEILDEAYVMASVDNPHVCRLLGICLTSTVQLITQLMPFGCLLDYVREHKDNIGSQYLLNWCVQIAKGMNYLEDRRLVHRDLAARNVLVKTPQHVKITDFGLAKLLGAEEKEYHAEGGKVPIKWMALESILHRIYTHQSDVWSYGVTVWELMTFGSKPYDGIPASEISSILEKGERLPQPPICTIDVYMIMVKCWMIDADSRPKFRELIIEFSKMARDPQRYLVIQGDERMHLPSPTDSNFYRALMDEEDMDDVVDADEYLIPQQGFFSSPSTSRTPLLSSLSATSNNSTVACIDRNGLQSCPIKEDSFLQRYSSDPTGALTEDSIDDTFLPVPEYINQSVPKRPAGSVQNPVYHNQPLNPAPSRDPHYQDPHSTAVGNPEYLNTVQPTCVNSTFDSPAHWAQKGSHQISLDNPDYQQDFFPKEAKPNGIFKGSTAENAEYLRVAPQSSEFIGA

IC50 [1]: < 2 nM
SMILES: C[C@H](Nc1c(C#N)cnc2ccc(-c3cnc(Cl)c(NS(C)(=O)=O)c3)cc12)c1ccccc1 [Compound 48S, N-(2-chloro-5-(3-cyano-4-((1S-phenylethyl)amino)quinolin-6-yl)pyridin-3-yl)methanesulfonamide]

SMILES: C[C@@H](Nc1ncnc2ccc(-c3cnc(Cl)c(NS(C)(=O)=O)c3)cc12)c1ccccc1 [Compound 2R, N-(2-chloro-5-(4-((1R-phenylethyl)amino)quinazolin-6-yl)pyridin-3-yl)methanesulfonamide]
increase in exposure (AUClast/D) vs Comparative Compound 2 ([2]; IV): ~3 fold
enhanced exposure (AUClast/D) relative to Comparative Compound 2 ([2]; oral): 3 fold
increase in exposure (AUClast/D) vs Comparative Compound 2 ([3]; IV): ~15 fold
improvement in exposure (AUClast/D) vs Comparative Compound 2 ([3]; oral): > 28 fold
increase in exposure (AUClast/D) vs Comparative Compound 2 ([4]; IV): ~3 fold
improvement in exposure (AUClast/D) vs Comparative Compound 2 ([4]; oral): > 74 fold
Tolerability (body weight loss, clinical signs) [5]: well tolerated

solubility at 2 h [6, 9]: ≤ 20 µM
IC50 [1]: 20 to 200 nM
inhibition at 0.1 µM [1]: 80 to 90%
inhibition at 0.1 µM [7]: > 90%
IC50 [8]: 20 to 200 nM
inhibition at 0.1 µM ([8]; read-out: EGFR % Inh. @ 100 nM): > 90%
SMILES: CS(=O)(=O)Nc1cncc(-c2ccc3ncnc(NCc4ccccc4)c3c2)c1 [Comparative Compound 3, reference compound]

SMILES: CS(=O)(=O)Nc1cc(-c2ccc3ncc(C#N)c(NC4(c5ccccc5)CC4)c3c2)cnc1Cl [Compound 106, N-[2-chloro-5-[3-cyano-4-[(1-phenylcyclopropyl)amino]-6-quinolyl]-3-pyridyl]methanesulfonamide]
inhibition at 0.1 µM [1]: > 90%

SMILES: CS(=O)(=O)Nc1cc(-c2ccc3ncc(C#N)c(NC4c5ccccc5CC4O)c3c2)cnc1Cl (stereo not drawn) [Compound 103, N-[2-chloro-5-[3-cyano-4-[(2-hydroxyindan-1-yl)amino]-6-quinolyl]-3-pyridyl]methanesulfonamide]
inhibition at 0.1 µM [1]: > 90%

SMILES: C[C@@H](Nc1c(C#N)cnc2ccc(-c3cnc(Cl)c(NS(C)(=O)=O)c3)cc12)c1ccc(F)cc1 [Compound 97R, N-[2-chloro-5-[3-cyano-4-[[(1R)-1-(4-fluorophenyl)ethyl]amino]-6-quinolyl]-3-pyridyl]methanesulfonamide]
inhibition at 0.1 µM [1]: 80 to 90%

solubility at 2 h ([6]; aqueous buffer, PBS pH 7.4, 25° C., read-out: Solubility pH 7.4 PBS buffer): ≤ 20 µM
solubility at 2 h ([6]; simulated gastric fluid (SGF), simulated gastric fluid pH 1.2, 25° C., read-out: Solubility SGF): > 200 µM
solubility at 2 h [6, 9]: ≤ 20 µM
IC50 [1]: 2 to 20 nM
SMILES: C[C@@H](Nc1c(C#N)cnc2ccc(-c3cnc(Cl)c(NS(C)(=O)=O)c3)cc12)c1ccccc1 [Compound 48R, N-(2-chloro-5-(3-cyano-4-((1R-phenylethyl)amino)quinolin-6-yl)pyridin-3-yl)methanesulfonamide]
